One series deals with T1, Gαs/GNP (Homo sapiens, UniProt P63092).
T1 construct: hexahistidine (N, cleaved yes); made in house; host or cells: E. coli BL21(DE3)
As to the kind of experiment: Bio-layer interferometry (BLI), GNP-bound Gαs. Conditions: immobilized Gαs/GNP, read-out: KD, binding to Gαs/GNP. As to the method: (§1) BLI experiments were performed using an OctetRED384 instrument from ForteBio. All experiments were performed at 25°C using BLI buffer (10 mM HEPES pH 7.4, 150 mM NaCl, 1mM MgCl2, 0.05% Tween 20, 0.1% DMSO, 0.2 mM GNP or GDP). Cyclic peptides or Gα proteins were diluted to a series of concentrations (Final concentrations were indicated in Figures) in BLI buffer plus 10 μM Biotin. Assays were conducted in Greiner 384well, black, flat bottom polypropylene plates containing the protein solutions, BLI buffer plus 10 μM Biotin for dissociation, and serial dilutions of cyclic peptides to be tested.
(§2) Biotinylated proteins or cyclic peptides were immobilized on Streptavidin biosensors by dipping sensors into plate wells containing protein solutions at a concentration of 50–150 nM. Protein loading is around 2–3 nm. Cyclic peptide loading is around 0.2–0.3 nm. Sensors loaded with proteins or cyclic peptides were moved and dipped into wells with BLI buffer plus 10 μM Biotin to block unlabeled Streptavidin. […]
(§3) Raw kinetic data collected were processed with the Data Analysis software provided by the manufacturer using single reference subtraction in which buffer-only reference was subtracted (For GN13 analysis). […] The resulting data were analyzed based on a 1:1 binding model from which kon and koff values were obtained and then Kd values were calculated.

A short description of series [1]: Chemical stability assay in DMEM with 10% FBS. In kind it is in vitro ADME. Conditions: bovine, DMEM with 10% FBS (fetal bovine serum), 37 °C, values represent 95% confidence intervals, read-out: Half-life (hour), chemical stability in DMEM with 10% FBS. How it is done:
(§4) These assays were conducted by Pharmaron Beijing CO., Ltd. Cyclic peptides working solutions were prepared at 10 μM in DMEM with 10% FBS (Avantor, Cat# 76,294–180) or human plasma (Pooled, Male & Female, BioIVT, Cat# HMN666664). The assays were performed in duplicate. Vials were incubated at 37 °C at 60 rpm in a water bath and taken at designated time points including 0, 480, 1080 and 1440 min. For each time point, the initiation of the reaction was staggered so all the time points were terminated with cold acetonitrile containing internal standards (IS, 100 nM alprazolam, 200 nM labetalol, 200 nM Imipramine and 2 μM ketoplofen) at the same time. Samples were vortexed then centrifuged at 4°C to remove proteins. The supernatants from centrifugation were diluted by ultra-pure H2O and used for LC-MS/MS analysis. All calculations were carried out using GraphPad Prism. Remaining percentages of parent compounds at each time point were estimated by determining the peak area ratios from extractedion chromatograms.

For a further series, the target named is T2, Gαs (short isoform) (Homo sapiens, UniProt P63092).
T2 construct: vector His tag with thrombin/Drice site (removed); made in house; host or cells: E. coli BL21(DE3)
In words: Reconstituted adenylyl cyclase (AC) activity assay, Gαs/GNP-mediated AC activation. Format: biochemical. Conditions: Gαs/GNP 125 nM, read-out: IC50, inhibition of Gαs-mediated AC activation. As to the method: Cyclic peptides (4 mM stock in DMSO) were diluted to 4X stocks with a series of concentrations in reaction buffer (1x PBS 7.4, 0.1% BSA). Gαs at a concentration of 8.5 mg/mL (about 190 μM) in 20 mM HEPES 8.0, 150 mM NaCl, 5 mM MgCl2, 1 mM EDTA-Na 8.0 was diluted to 0.5 μM in dilution buffer (1x PBS 7.4, 0.1% BSA, 1 mM EDTA-Na 8.0, 2 mM DTT, 0.1mM MgCl2) plus 1mM GNP (For the GDP-bound R201 mutants, GDP was used in the nucleotide exchange experiments). After incubation at room temperature for 1 h to allow nucleotide exchange, 2.5 μL of 4x Gαs dilution was mixed with 1 μL MgCl2 stock (20 mM MgCl2, 1x PBS 7.4, 0.1% BSA) in an OptiPlate-384, White Opaque 384-well Microplate to lock Gαs in GNP-bound state. 2 μL of 5x AC stock (2 μM VC1, 2 nM IIC2, 150 μM FSK, 1x PBS 7.4, 0.1% BSA) was added, followed by addition of 2.5 μL 4X cyclic peptides stock. […] The cAMP concentrations were measured by the LANCE Ultra cAMP kit. […]
cAMP concentrations measurement by the LANCE Ultra cAMP kit: A cAMP standard curve was generated in the same plate using the 50 μM cAMP standard in the kit. […] 10 μL of each diluted sample was mixed with 5 μL of 4X Eu-cAMP tracer and 5 μL of 4X ULight-anti-cAMP in a white, opaque Optiplate-384 microplate, incubated for 1 h at room temperature, and the time-resolved fluorescence resonance energy transfer (TR-FRET) signals were read on a Spark 20M plate reader. […]

The next series can be described thus: Plasma stability assay. To be noted: both sexes, pooled human plasma, 37 °C, values represent 95% confidence intervals, read-out: Half-life (hour), plasma stability. In kind it is in vitro ADME. How it is done:
as §4

The target of another series is T3, Gαs/GDP (Homo sapiens, UniProt P63092).
T3 construct: hexahistidine (N, cleaved yes); made in house; host or cells: E. coli BL21(DE3)
As to the kind of experiment: Bio-layer interferometry (BLI), GDP-bound Gαs. Conditions: read-out: KD, binding to Gαs/GDP. How it is done: as §1, §2, §3

A further series deals with T4, Gαs/GDP and Gβγ(C68S) (Homo sapiens, UniProt P63092).
T4 construct: hexahistidine (N, cleaved yes); made in house; host or cells: E. coli BL21(DE3) (Gαs); Sf9 insect cells (Gβ1γ2)
As to the kind of experiment: FRET based Gαs/Gβγ interaction assay. Format: binding.

For series [2], the target named is T5, Adenylyl cyclase (C1 domain of ADCY5, VC1, with C2 domain of ADCY2, IIC2) (human, UniProt O95622 442-658; Q08462 871-1082).
T5 construct: C1 domain (VC1) of adenylyl cyclase V; C2 domain (IIC2) of human adenylyl cyclase II, residues 871-1082; Forskolin (100 uM) was present in the assay; also called AC; VC1/IIC2; source: E. coli BL21(DE3), purified (TALON, gel filtration); VC1 and IIC2 mixed with forskolin as one AC stock
As to the kind of experiment: AlphaScreen or HTRF; TR-FRET competition: biotinylated GNP-bound Gαs (100 nM) with streptavidin XL665, AC (VC1 20 nM, IIC2 40 nM, forskolin 100 uM) with anti-6His-Tb cryptate, GN13 0-40,000 nM, 1 h at room temperature, 1X PBS 7.4, 0.1% BSA, 2 mM DTT, 2 mM MgCl2. Conditions: both partners purified.

Series [3] deals with T6, Adenylyl cyclase (AC): C1 domain of ADCY5 (VC1) with C2 domain of ADCY2 (IIC2), with forskolin (human, UniProt O95622 442-658; Q08462 871-1082).
T6 construct: C1 domain of human ADCY5 (adenylyl cyclase V), residues 442-658; C2 domain of human ADCY2 (adenylyl cyclase II), residues 871-1082; In the TR-FRET assay AC was detected with anti-6His-Tb cryptate; source: E. coli BL21(DE3), each domain purified (TALON, gel filtration), mixed as an AC stock with forskolin
As to the kind of experiment: AlphaScreen or HTRF; TR-FRET Gαs/adenylyl cyclase interaction assay: 100 nM GNP-bound biotinylated Gαs with streptavidin XL665, 20 nM VC1, 40 nM IIC2, 100 μM forskolin with anti-6His-Tb cryptate, cyclic peptide series; 1X PBS 7.4, 0.1% BSA, 2 mM DTT, 2 mM MgCl2, 1 h at room temperature. To be noted: both partners purified.

Where a SMILES comes first, the peptide text is derived from it. Bridges are numbered along the chain shown (N, C = ends). [ ]: non-standard residue; d: D form. A value given as a limit tells only on which side of the number the result lay.

As for `CC[C@H](C)[C@@H]1NC(=O)[C@H](C)NC(=O)[C@H](Cc2ccc(O)cc2)NC(=O)[C@H](C(C)C)NC(=O)[C@H](CO)NC(=O)[C@H](CCC(=O)O)NC(=O)[C@H](Cc2ccccc2)NC(=O)[C@@H](Cc2ccc(O)cc2)NC(=O)CSC[C@@H](C(=O)NCC(N)=O)NC(=O)[C@H](CC(C)C)NC(=O)[C@H]([C@@H](C)O)NC(=O)CNC(=O)[C@H](Cc2c[nH]c3ccccc23)NC1=O` [GN13] ({CH2CO}-[dY]FESVYAIWGTLCG-NH2; thioether N-13), the Kd on Gαs/GNP was 190 ± 20 nM. Further, the half-life at 10 μM is > 76 h in series [1] and > 82 h in the series “Plasma stability assay”. Also, the IC50 at Gαs (short isoform) came to 4150 ± 1130 nM.
In the case of `CC[C@H](C)[C@@H]1NC(=O)[C@H](CC(C)C)NC(=O)[C@@H](Cc2ccc(O)cc2)NC(=O)CSC[C@@H](C(=O)NCC(N)=O)NC(=O)[C@@H]2CCCN2C(=O)[C@H](CC(C)C)NC(=O)[C@H](CC(N)=O)NC(=O)[C@H](CC(C)C)NC(=O)[C@H](C)NC(=O)[C@H](Cc2c[nH]c3ccccc23)NC(=O)[C@H](CCC(N)=O)NC(=O)[C@H](CCCNC(=N)N)NC(=O)[C@H](Cc2ccccc2)NC(=O)[C@H]([C@@H](C)O)NC1=O` [cpGD20] ({CH2CO}-[dY]LITFRQWALNLPCG-NH2; thioether N-14), at Gαs/GDP, the Kd was determined as 14.5 ± 0.4 nM. At Gαs/GDP and Gβγ(C68S), this molecule came in with an IC50 of 14 ± 0.6 nM. Also, the half-life at 10 μM in series [1] was 37.4 to 50.3 h; in the series “Plasma stability assay” it was 7.16 to 12.7 h.

B1: Biotinylated Avi-Gαs (WT), residues 7-380 of the short isoform of human Gαs (natural protein)
chain: SKTEDQRNEEKAQREANKKIEKQLQKDKQVYRATHRLLLLGAGESGKSTIVKQMRILHVNGFNGDSEKATKVQDIKNNLKEAIETIVAAMSNLVPPVELANPENQFRVDYILSVMNVPDFDFPPEFYEHAKALWEDEGVRACYERSNEYQLIDCAQYFLDKIDVIKQADYVPSDQDLLRCRVLTSGIFETKFQVDKVNFHMFDVGGQRDERRKWIQCFNDVTAIIFVVASSSYNMVIREDNQTNRLQEALNLFKSIWNNRWLRTISVILFLNKQDLLAEKVLAGKSKIEDYFPEFARYTTPEDATPEPGEDPRVTRAKYFIRDEFLRISTASGDGRHYCYPHFTCAVDTENIRRVFNDCRDIIQRMHLRQYELL
modifications: biotin on the Avi tag
notes: Gαs (GNAS), human, short isoform (380 residues), residues 7-380; Loaded with GppNHp (GNP) or GDP as the assay says; also called Biotinylated Gαs/GNP; Biotinylated Gαs/GDP; source: E. coli BL21(DE3), purified (TALON, Source-15Q, gel filtration), biotinylated with BirA; not shown: Avi tag, N-terminal, kept; His6, N-terminal, cleaved
Consider B1, for which the binding result in series [2] is reported as “binds”.

B2: Biotinylated Avi-Gαs (WT), residues 7-380 of the short isoform of human Gαs (natural protein)
chain: B1 chain
modifications: biotin on the Avi tag (BirA)
notes: human Gαs (GNAS), short isoform, residues 7-380; Loaded with GNP (GppNHp) or GDP; the nucleotide state is told by the assay; also called Gαs/GNP; Gαs/GDP; source: E. coli BL21(DE3), purified (TALON, Drice cleavage, BirA biotinylation, Source-15Q, gel filtration); not shown: Avi tag, N-terminal, kept; His6, N-terminal, cleaved
As for B2, the binding result in series [3] is “binds”.
